Reference: US6395684B1, “Selective herbicides based on a substituted phenyl sulfonyl amino carbonyl triazolinone” (Bayer Aktiengesellschaft, priority 1998, dated 2002)
Where a name gives a salt, the structure may show the parent alone.

Columns and labels:
Type in all cases: in vivo
[1] = system: Phalaris minor; test: Post-emergence test/outdoors (Example E, California); conditions: 42 g a.i./ha to 45 g a.i./ha, + SAS, outdoors, irrigation wheat growing area, 2 tests
[2] = system: Avena; test: Post-emergence test/greenhouse; conditions: 60 g ai./ha, greenhouse, after three weeks
Experimental: (§1) Post-emergence Test/greenhouse Solvent: 5 parts by weight of acetone Emulsifier: 1 part by weight of alkylaryl polyglycol ether To produce a suitable preparation of active compound, 1 part by weight of active compound is mixed with the stated amount of solvent, the stated amount of emulsifier is added and the concentrate is diluted with water to the desired concentration. Test plants which have a height of 5-15 cm are sprayed with the preparation of active compound such that the particular amounts of active compound desired are applied per unit area. The concentration of the spray liquor is chosen so that the particular amounts of active compound desired are applied in 500 l of water/ha. After three weeks, the degree of damage to the plants is assessed in % damage in comparison to the development of the untreated control. The figures denote: 0%=no effect (like untreated control) 100% total destruction

[3] = system: Agropyron; test: Post-emergence test/greenhouse; conditions: 60 g ai./ha, greenhouse, after three weeks
Experimental: as §1

[4] = system: Wheat; test: Post-emergence test/greenhouse; conditions: greenhouse
Experimental: as §1

[5] = system: Lolium; test: Post-emergence test/greenhouse; conditions: 60 g ai./ha, greenhouse, after three weeks
Experimental: as §1

[6] = system: Bromus; test: Post-emergence test/greenhouse; conditions: 60 g ai./ha, greenhouse, after three weeks
Experimental: as §1

[7] = system: Alopecurus; test: Post-emergence test/greenhouse; conditions: 60 g ai./ha, greenhouse, after three weeks
Experimental: as §1

[8] = system: winter wheat; test: Post-emergence tests/outdoors (Example D, USA), crop compatibility; conditions: 42 g a.i./ha to 45 g a.i./ha, post-emergence (autumn), outdoors, with surface-active substances (SAS), 78 tests
Experimental: (§2) The active compound was applied by the post-emergence method (spring) across the area by the spray method, with an average droplet size. To produce a useful preparation of active compound, the active compound was formulated as 70 WP or 70 WG (70% w/w water-dispersible powder or granules) and applied with customary amounts of water. To assess the crop compatibility, from 1 to 8 weeks after the treatment, plant growth inhibitions or […] of the leaf area were assessed in % damage in comparison to the development of the untreated control. At different intervals after the treatment, the herbicidal activity was assessed as % reduction in comparison to the untreated control, based on the weed development. The figures denote: 0%=no damage of the crops or no herbicidal effect, 100%=total destruction of the crops or the weeds. Post-emergence Tests/outdoors The sodium salt of the compound of the formula (I) was tested under outdoor conditions in the main cultivation areas of winter wheat in the USA (Pacific Northwest, North Central Area, Central Plains) against economically important weeds. The design, the practice and the evaluation of the experiments corresponded to Example C. The active compound was applied in autumn. Wetting of the plants was improved by addition of commercial surface-active substances (SAS) in the concentrations recommended by the respective manufacturer.

[9] = system: Capsella bursa-pastoris; test: Post emergence tests/outdoors (Example C, Germany and France); conditions: 42 g of a.i./ha to 45 g of a.i./ha, post-emergence (spring), outdoors, winter wheat, 70 WP or 70 WG, 6 tests
Experimental: (§3) Post Emergence Tests/outdoors Under outdoor conditions, the sodium salt of the compound of the formula (I) was tested in winter wheat in Germany and France against economically important weeds. The small-plot experiments were carried out on cultivated land under agricultural use, with cultivation and climate conditions which can be considered to be representative for the period of the trial. Areas with particularly extensive weed growth were chosen by way of preference. The active compound was applied by the post-emergence method (spring) across the area by the spray method, with an average droplet size. To produce a useful preparation of active compound, the active compound was formulated as 70 WP or 70 WG (70% w/w water-dispersible powder or granules) and applied with customary amounts of water. To assess the crop compatibility, from 1 to 8 weeks after the treatment, plant growth inhibitions or […] of the leaf area were assessed in % damage in comparison to the development of the untreated control. At different intervals after the treatment, the herbicidal activity was assessed as % reduction in comparison to the untreated control, based on the weed development. The figures denote: 0%=no damage of the crops or no herbicidal effect, 100%=total destruction of the crops or the weeds.

[10] = system: Apera spica-venti; test: as above; conditions: 42 g of a.i./ha to 45 g of a.i./ha, post-emergence (spring), outdoors, winter wheat, 70 WP or 70 WG, 87 tests
Experimental: as §3

[11] = system: Agropyron repens; test: as above; conditions: 42 g of a.i./ha to 45 g of a.i./ha, post-emergence (spring), outdoors, winter wheat, 70 WP or 70 WG, 83 tests
Experimental: as §3

[12] = system: Alopecurus myosuroides; test: as above; conditions: 42 g of a.i./ha to 45 g of a.i./ha, post-emergence (spring), outdoors, winter wheat, 70 WP or 70 WG, 204 tests
Experimental: as §3

[13] = system: Poa annua; test: as above; conditions: 42 g of a.i./ha to 45 g of a.i./ha, post-emergence (spring), outdoors, winter wheat, 70 WP or 70 WG, 5 tests
Experimental: as §3

[14] = system: Sinapis arvensis; test: as above; conditions: 42 g of a.i./ha to 45 g of a.i./ha, post-emergence (spring), outdoors, winter wheat, 70 WP or 70 WG, 4 tests
Experimental: as §3

[15] = system: Thlaspi arvense; test: Post-emergence tests/outdoors (Example D, USA); conditions: 42 g a.i./ha to 45 g a.i./ha, post-emergence (autumn), outdoors, winter wheat, with surface-active substances (SAS), 7 tests
Experimental: as §2

[16] = system: Bromus secalinus; test: Post-emergence tests/outdoors (Example D, USA); conditions: 42 g a.i./ha to 45 g a.i./ha, post-emergence (autumn), outdoors, winter wheat, with surface-active substances (SAS), 24 tests
Experimental: as §2

[17] = system: Erysimum cheiranthoides; test: Post-emergence tests/outdoors (Example D, USA); conditions: 42 g a.i./ha to 45 g a.i./ha, post-emergence (autumn), outdoors, winter wheat, with surface-active substances (SAS), 10 tests
Experimental: as §2

[18] = system: Wheat; test: Post-emergence test/outdoors (Example E, California), crop compatibility; conditions: 42 g a.i./ha to 45 g a.i./ha, + SAS, outdoors, 7 tests
[19] = system: Phalaris paradoxa; test: Post-emergence test/outdoors (Example E, California); conditions: 42 g a.i./ha to 45 g a.i./ha, + SAS, outdoors, irrigation wheat growing area, 8 tests

SMILES: CCCOc1nn(C(=O)NS(=O)(=O)c2ccccc2C(=O)OC)c(=O)n1C [(I)-Na-salt, 2-(2-methoxycarbonyl-phenylsulphonylaminocarbonyl)-4-methyl-5-propoxy-2,4-dihydro-3H-1,2,4-triazol-3-one]
- herbicidal effect (%) [1]: 93%
- degree of damage to the plants (% damage in comparison to the untreated control) [2]: 80%
- degree of damage to the plants (% damage in comparison to the untreated control) [3]: 100%
- degree of damage to the plants (% damage in comparison to the untreated control) ([4]; Wheat, 60 g ai./ha, after three weeks): 0%
- compatibility with crop plants (wheat), in words ([4]; sodium salt of (I) at 60 g/ha): very good compatibility
- degree of damage to the plants (% damage in comparison to the untreated control) [5]: 80%
- degree of damage to the plants (% damage in comparison to the untreated control) [6]: 95%
- degree of damage to the plants (% damage in comparison to the untreated control) [7]: 90%
- Damage to the crop (wheat) [8]: 2%
- herbicidal effect (%) [9]: 100%
- herbicidal effect (%) [10]: 94%
- herbicidal effect (%) [11]: 89%
- herbicidal effect (%) [12]: 91%
- herbicidal effect (%) [13]: 67%
- herbicidal effect (%) [14]: 100%
- herbicidal effect (%) [15]: 100%
- herbicidal effect (%) [16]: 95%
- herbicidal effect (%) [17]: 89%
- Damage to the crop (wheat) [18]: 5%
- herbicidal effect (%) [19]: 99%
